Earlier results in US7235142B2, “Non-toxic corrosion-protection rinses and seals based on cobalt” (University of Dayton, priority 2002, dated 2007).

Settings: pH 7

| SMILES | Solubility in Water [mM] |
| --- | --- |
| N.N.N.N.N.[Cl][Co]([Cl])[Cl] [Pentaammine cobalt (III) chloride] | 930 |
| [O-][Cl+3]([O-])([O-])[O-].[O-][Cl+3]([O-])([O-])[O-].[Sr+2] [Strontium perchlorate] | 11000 |
| N.N.N.N.N.N.[Cl-].[Cl-].[Cl-].[Co+3] [Hexaammine cobalt (III) chloride] | 220 |
| [O-][Cl+3]([O-])([O-])O [Sodium perchlorate] | 15000 |
